In patent US8771967B2, “Immunomodulation of functional T cell assays for diagnosis of infectious or autoimmune disorders” (priority 2010, dated 2014):

Tests used:
[1] = system: blood cells in the Nil tube; test: Cytokine profiling of plasma from the QFT-GIT Nil tube after immunomodulation; assay type: cell-based, human; details: poly(I:C) 40 μg/ml, LPS 250 pg/ml, 22 h
Protocol: Was performed at the Human Immune Monitoring Center (HIMC) at Stanford University. 100 μl of plasma from the QFT-GIT Nil tube was subjected to cytokine profiling. Procarta Cytokine Assay custom 51-plex kit (Affymetrix, Palo Alto, Calif.) was used according to manufacturer's recommendations.

antigen presenting cells = test: Flow cytometry of surface expression of MHC and costimulatory molecules in the QFT-GIT assay; assay type: cell-based, human; details: compared to unstimulated blood cells; LPS 250 pg/ml, poly(I:C) 40 μg/ml; 3 and 6 hours
Protocol: The QFT-GIT tubes were incubated upside down to prevent migration of cells into the gel layer. At the end of incubation 100 μl of 20 mM EDTA was added per tube. Samples were vortexed and incubated at room temperature for 15 minutes. Blood was transferred to a 15 ml polypropylene tube containing 9 ml of 1×FACS™ Lysing Solution (BD Biosciences, Immunocytometry Systems, San Jose, Calif.). Samples were incubated at room temperature for 10 minutes and directly transferred to a −70° C. freezer for storage. The cell surface immune profiling studies were performed at the HIMC. The cells were thawed in warm media, washed once with FACS buffer (PBS supplemented with 2% FBS and 0.1% sodium azide) and resuspended at 1×10^7 viable cells/ml. 5×10^5 cells per well were stained for 45 min at room temperature with the following antibodies: All reagents were purchased from BD Biosciences. Cells were washed three times with FACS buffer, and resuspended in […]. 10,000 cells per sample were collected using DIVA 6.0 software on an LSR11 flow cytometer (BD Biosciences). Data analysis was performed using FlowJo v9.3 by gating on live cells based on forward versus side scatter profiles, then on singlets using forward scatter area versus height, followed by cell subset-specific gating.

[2] = system: M. tuberculosis-specific T cells; test: QuantiFERON-TB Gold In-Tube (QFT-GIT) whole blood IFN-γ release assay with immunomodulation by TLR agonists; details: for IFN-γ responses compared to the standard assay in anergic subjects / IFN-γ response at intermediate concentration / enhancement of IFN-γ response (median): poly(I:C) 40 μg/ml, imiquimod 2 μg/ml; for IFN-γ responses compared to the standard assay in anergic subjects: P <0.05; for IFN-γ response compared to the standard assay, two concentrations: 8 subjects with LTBI, poly(I:C) 10 and 100 μg/ml, LPS 125 and 500 pg/ml, imiquimod 1 and 5 μg/ml; for kinetics of IFN-γ release: QFT-GIT with immunomodulation vs without, correlated with cytokine induction / APC maturation; for enhancement of IFN-γ response (median): vs standard QFT-GIT; for recapitulation of the effects of TLR agonists on the QFT-GIT assay: IL-6 at 200 and 2000 pg/ml, IL-12 at 12.5 and 25 pg/ml, INF-α at 15 and 30 pg/ml, alone or in combination
Excerpt: Healthy adults were recruited from the Stanford Hospital clinical laboratories using a protocol approved by the Institutional Review Board. After obtaining in informed consent, volunteers were asked to complete a standardized questionnaire to assess risk factors for TB exposure. LTBI was defined as prior history of positive TST and QFT-GIT and ≧1 risk factor for LTBI. Uninfected control was defined as US born with prior negative TST and QFT-GIT and no risk factors.
The QFT-GIT assay was performed according to package insert with a slight modification described below. Up to 10 μA of each TLR agonist or an equivalent volume of endotoxin-free water was added to each QFT-GIT tube. Blood was collected in a 10 mL Kendall Monoject Green Stopper tube and 1 mL was quickly transferred to each QFT-GIT tube. Tubes were placed in a 3TC incubator for 22 hours or as indicated. ELISA was performed according to package insert. […] Calculation of IFN-γ concentrations was done with the software provided by the manufacturer.
Statistical analyses were performed using the Prism software (Graph Pad, San Diego, Calif.). The Wilcoxon's test of medians was used to compare differences in medians. All statistical tests were computed for a two-sided type I error rate of 5%.

[3] = 8 individuals with histories of LTBI but currently negative QFT-GIT, LPS 250 pg/ml
[4] = subjects with LTBI, LPS 250 pg/ml
[5] = uninfected controls, LPS 250 pg/ml

## poly(I:C)
[1]
  levels of IL-6, IL-12 p40, IFN-α, and other cytokines: significantly increased
Antigen presenting cells
  surface expression of MHC II and costimulatory molecules in monocytes and partially in B cells and myeloid dendritic cells: not
[2]; [3]
  IFN-γ responses compared to the standard assay in anergic subjects: significantly increased
[2]
  IFN-γ response compared to the standard assay, two concentrations: dose-dependent enhancement
  kinetics of IFN-γ release: earlier and more robust release of IFN-γ
[2]; [4]
  IFN-γ response at intermediate concentration: significant enhancement
  enhancement of IFN-γ response (median): 5.7 fold
[2]; [5]
  IFN-γ response at intermediate concentration: not in the uninfected controls

## lipopolysaccharide [LPS]
[1]
  levels of IL-6, IL-12 p40, IFN-α, and other cytokines: significantly increased
Antigen presenting cells
  surface expression of MHC II and costimulatory molecules in monocytes and partially in B cells and myeloid dendritic cells: increased
[2]; 8 individuals with histories of LTBI but currently negative QFT-GIT, cutoff 0.35 IU/ml
  consistency in eliciting a response higher than the cutoff value for the standard assay: most consistent
[2]; [3]
  IFN-γ responses compared to the standard assay in anergic subjects: significantly increased
[2]
  IFN-γ response compared to the standard assay, two concentrations: dose-dependent enhancement
  kinetics of IFN-γ release: earlier and more robust release of IFN-γ
[2]; [4]
  IFN-γ response at intermediate concentration: significant enhancement
  enhancement of IFN-γ response (median): 3.1 fold
[2]; [5]
  magnitude of the IFN-γ responses (TB Ag minus Nil): ≤ 0.5 IU/ml
  IFN-γ response at intermediate concentration: significantly increased

## IL-6: inflammatory cytokine purchased from R&D System
[2]
  recapitulation of the effects of TLR agonists on the QFT-GIT assay: failed to recapitulate

## CC(C)Cn1cnc2c(N)nc3ccccc3c21 [imiquimod]
[2]; [3]
  IFN-γ responses compared to the standard assay in anergic subjects: significantly increased
[2]
  IFN-γ response compared to the standard assay, two concentrations: dose-dependent enhancement
[2]; [4]
  IFN-γ response at intermediate concentration: significant enhancement
  enhancement of IFN-γ response (median): 3 fold
[2]; [5]
  IFN-γ response at intermediate concentration: not in the uninfected controls

B1: IL-12: inflammatory cytokine purchased from R&D System (protein, UniProt P29459 23-219; P29460 23-328, looked up)
Interleukin-12 subunit alpha: RNLPVATPDPGMFPCLHHSQNLLRAVSNMLQKARQTLEFYPCTSEEIDHEDITKDKTSTVEACLPLELTKNESCLNSRETSFITNGSCLASRKTSFMMALCLSSIYEDLKMYQVEFKTMNAKLLMDPKRQIFLDQNMLAVIDELMQALNFNSETVPQKSSLEEPDFYKTKIKLCILLHAFRIRAVTIDRVMSYLNAS
Interleukin-12 subunit beta: IWELKKDVYVVELDWYPDAPGEMVVLTCDTPEEDGITWTLDQSSEVLGSGKTLTIQVKEFGDAGQYTCHKGGEVLSHSLLLLHKKEDGIWSTDILKDQKEPKNKTFLRCEAKNYSGRFTCWWLTTISTDLTFSVKSSRGSSDPQGVTCGAATLSAERVRGDNKEYEYSVECQEDSACPAAEESLPIEVMVDAVHKLKYENYTSSFFIRDIIKPDPPKNLQLKPLKNSRQVEVSWEYPDTWSTPHSYFSLTFCVQVQGKSKREKKDRVFTDKTSATVICRKNASISVRAQDRYYSSSWSEWASVPCS
[2]
  recapitulation of the effects of TLR agonists on the QFT-GIT assay: failed to recapitulate
